{"source": "patent US8377667B2", "about": "“Microorganisms for the production of 1,4-butanediol, 4-hydroxybutanal, 4-hydroxybutyryl-CoA, putrescine and related compounds, and methods related thereto” (Genomatica, Inc., priority 2009, dated 2013)"}
{"molecular_target": "T1, BK (Clostridium acetobutylicum, UniProt Q45829)", "T1 construct": "made in house; host or cells: E. coli, crude cell extract (pZA33-0020-0021)", "T1 sequence (Q45829 1-355)": "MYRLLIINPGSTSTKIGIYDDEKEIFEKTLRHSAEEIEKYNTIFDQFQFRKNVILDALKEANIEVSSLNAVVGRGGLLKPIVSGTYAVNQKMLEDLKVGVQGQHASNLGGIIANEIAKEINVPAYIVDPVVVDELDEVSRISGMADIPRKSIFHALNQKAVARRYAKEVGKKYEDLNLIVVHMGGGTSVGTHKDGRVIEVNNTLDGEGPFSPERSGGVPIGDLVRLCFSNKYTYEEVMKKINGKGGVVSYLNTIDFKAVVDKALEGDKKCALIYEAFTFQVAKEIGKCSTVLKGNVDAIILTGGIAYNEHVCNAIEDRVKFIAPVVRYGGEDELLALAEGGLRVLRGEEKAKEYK", "assay": "Butyrate kinase (BK) enzyme activity, butyrate to butyryl-phosphate", "type": "biochemical, C. acetobutylicum", "settings": "extracts from cells containing pZA33-0020-0021", "experimental": "The enzyme activity of PTB is measured in the direction of butyryl-CoA to butyryl-phosphate as described in Cary et al. J. Bacteriol. 170:4613-4618 (1988). It provides inorganic phosphate for the conversion, and follows the increase in free CoA with the reagent 5,5′-dithiobis-(2-nitrobenzoic acid), or DTNB. DTNB rapidly reacts with thiol groups such as free CoA to release the yellow-colored 2-nitro-5-mercaptobenzoic acid (TNB), which absorbs at 412 nm with a molar extinction coefficient of 14,140 M cm^−1. The assay buffer contained 150 mM potassium phosphate at pH 7.4, 0.1 mM DTNB, and 0.2 mM butyryl-CoA, and the reaction was started by addition of 2 to 50 μL cell extract. The enzyme activity of BK is measured in the direction of butyrate to butyryl-phosphate formation at the expense of ATP. The procedure is similar to the assay for acetate kinase previously described Rose et al., J. Biol. Chem. 211:737-756 (1954). However we have found another acetate kinase enzyme assay protocol provided by Sigma to be more useful and sensitive. […] The reaction was started by adding 2 to 50 μL cell extract, and the reaction was monitored based on the decrease in absorbance at 340 nm indicating NADH oxidation. […]"}
{"molecule": "BK: Butyrate kinase from C. acetobutylicum (gene 0021), native ptb/bk operon expressed in pZA33; cell extract (protein, listed as Clostridium acetobutylicum) MYRLLIINPGSTSTKIGIYDDEKEIFEKTLRHSAEEIEKYNTIFDQFQFRKNVILDALKEANIEVSSLNAVVGRGGLLKPIVSGTYAVNQKMLEDLKVGVQGQHASNLGGIIANEIAKEINVPAYIVDPVVVDELDEVSRISGMADIPRKSIFHALNQKAVARRYAKEVGKKYEDLNLIVVHMGGGTSVGTHKDGRVIEVNNTLDGEGPFSPERSGGVPIGDLVRLCFSNKYTYEEVMKKINGKGGVVSYLNTIDFKAVVDKALEGDKKCALIYEAFTFQVAKEIGKCSTVLKGNVDAIILTGGIAYNEHVCNAIEDRVKFIAPVVRYGGEDELLALAEGGLRVLRGEEKAKEYK", "specific activity of BK": "approximately 65 U/mg"}
{"system": "aminotransferase from Leishmania mexicana", "assay": "not given", "settings": "activity considered 100% on tyrosine; cited from earlier work", "units": {"activity (substrate specificity)": "%"}}
{"molecule": "CC(C)C[C@H](N)C(=O)O", "note": "[leucine]", "activity (substrate specificity)": 25}
{"molecule": "CSCC[C@H](N)C(=O)O", "note": "[methionine]", "activity (substrate specificity)": 25}
{"molecule": "N[C@@H](Cc1ccccc1)C(=O)O", "note": "[phenylalanine]", "activity (substrate specificity)": 90}
{"molecule": "N[C@@H](Cc1c[nH]c2ccccc12)C(=O)O", "note": "[tryptophan]", "activity (substrate specificity)": 85}
{"molecule": "N[C@@H](Cc1ccc(O)cc1)C(=O)O", "note": "[tyrosine]", "activity (substrate specificity)": 100}
